Data from ChEMBL document CHEMBL2203015, “Synthesis and biological evaluation of 5-aryloxypyrazole derivatives bearing a rhodanine-3-aromatic acid as potential antimicrobial agents” (Bioorg Med Chem Lett, 2012).
Active and inactive are the calls of the source.

Assays:
Format in all cases: functional, organism-based
Staphylococcus aureus [1] = test: Antibacterial activity against multidrug-resistant Staphylococcus aureus CCARM 3167 at 64 ug/ml incubated for 24 hrs serial dilution method
Staphylococcus aureus [2] = test: Antibacterial activity against Staphylococcus aureus KCTC 503 at 64 ug/ml incubated for 24 hrs serial dilution method
Staphylococcus aureus [3] = test: Antibacterial activity against Staphylococcus aureus KCTC 209 at 64 ug/ml incubated for 24 hrs serial dilution method
Staphylococcus aureus [4] = test: Antibacterial activity against quinolone-resistant Staphylococcus aureus CCARM 3519 at 64 ug/ml incubated for 24 hrs serial dilution method
Staphylococcus aureus [5] = test: Antibacterial activity against Staphylococcus aureus RN 4220 at 64 ug/ml incubated for 24 hrs serial dilution method
Staphylococcus aureus [6] = test: Antibacterial activity against multidrug-resistant Staphylococcus aureus CCARM 3506 at 64 ug/ml incubated for 24 hrs serial dilution method
Escherichia coli = test: Antibacterial activity against Escherichia coli 1356 at 64 ug/ml incubated for 24 hrs serial dilution method
Staphylococcus aureus [7] = test: Antibacterial activity against quinolone-resistant Staphylococcus aureus CCARM 3505 at 64 ug/ml incubated for 24 hrs serial dilution method

Measured: Activity

Cc1ccc(Oc2c(C=O)c(C)nn2-c2ccccc2)c(C)c1
inactive: all assays above

Cc1nn(-c2ccccc2)c(Oc2cccc(Cl)c2)c1C=O
inactive: all assays above

COc1ccccc1Oc1c(C=O)c(C)nn1-c1ccccc1
inactive: all assays above

Cc1nn(-c2ccccc2)c(Oc2c(Cl)cccc2Cl)c1C=O
inactive: all assays above

Cc1ccc(Oc2c(C=O)c(C)nn2-c2ccccc2)cc1
inactive: all assays above

Cc1nn(-c2ccccc2)c(Oc2ccc(Cl)cc2)c1C=O
inactive: all assays above

Cc1ccccc1Oc1c(C=O)c(C)nn1-c1ccccc1
inactive: all assays above

Cc1nn(-c2ccccc2)c(Oc2ccc(Br)cc2)c1C=O
inactive: all assays above

Cc1nn(-c2ccccc2)c(Oc2cccc(C(F)(F)F)c2)c1C=O
inactive: all assays above
